Key:
Type in all cases: in vivo
[1] = test system: larves de Spodoptera littoralis; assay: Effect on Spodoptera littoralis larvae, topical application; conditions: for activité (conclusion): conclusion in words on the Spodoptera littoralis test; for DL 50 (ng par individu): fourth-instar larvae, topical acetone solution on dorsal thorax, mortality 48 h after treatment
Experimental: 2°): Etude de l'effet sur larves de Spodoptera littoralis.
Les essais sont effectués par application topique d'une solution acétonique du produit à tester à l'aide du micro manipulateur d'Arnold sur le thorax dorsal des larves. On utilise 15 larves par dose de produit à tester. Les larves utilisées sont des larves du quatrième stade larvaire, c'est-à-dire âgées d'environ 10 jours lorsqu'elles sont élevées à 24°C et 65% d'humidité relative. Après traitement, les individus sont placés sur un milieu nutritif artificiel (milieu de Poitout).
On effectue le contrôle des mortalités 48 heures après traitement.

mouche domestique = assay: Knock-down activity on house fly, direct spray in Kearns and March chamber; conditions: for KT 50 en mn: direct spray, acetone/isopar L; for activité (conclusion): conclusion in words on the knock-down test
Experimental: 3°): Etude de l'activité de choc sur mouche domestique.
Les insectes tests sont des mouches domestiques femelles âgées de 4/5 jours. On opère par pulvérisation directe en chambre de Kearns et March en utilisant comme solvant un mélange en volumes égaux d'acétone et d'isopar L (quantité de solution utilisée 2 x 0,2 cm3). On utilise environ 50 insectes par dose de traitement. On effectue les contrôles toutes les minutes jusqu'à 10 minutes, puis à 15 minutes et l'on détermine le KT 50 par les méthodes habituelles.

mouches domestiques = assay: Lethal effect on house flies, topical application; conditions: for activité (conclusion): conclusion in words on the lethal test on house flies; for DL 50 (ng par individu): female house flies 4/5 days old, topical 1 µl acetone solution on dorsal thorax, mortality 24 h after treatment
Experimental: 1°); Etude de l'effet létal sur mouches domestiques.
Les insectes tests sont des mouches domestiques femelles âgées de 4/5 jours. On opère par application topique de 1 ul de solution acétonique du produit sur le thorax dorsal des insectes à l'aide du micro manipulateur d'Arnold. On utilise 50 individus par dose et par traitement. On effectue le contrôle de mortalité vingt-quatre heures après traitement.
Le résultat obtenu exprimé en DL 50 ou dose (en nanogrammes) nécessaire pour tuer 50% des insectes, est le suivant: […]

[2] = test system: blatte germanique (Blatella germanica); assay: Tarsal contact activity on German cockroach
Experimental: 4°): Etude de l'activité par contact tarsal sur blatte germanique. (composé de l'exemple 1J
Les insectes testés sont des mâles de blatte germanique (Blatella germanica). On opère par dépôt d'une solution acétonique de concentration déterminée sur le fond d'une boîte de Petri de 20 cm de diamètre. Après séchage on laisse séjourner 20 mâles de blattes par concentration durant 1 heure puis on transfère les insectes sur milieu sain et on contrôle leur mortalité à 24 h, 48 h, 3 et 5 jours.

Tétranychus urticae = assay: Adulticide test on Tetranychus urticae on bean plants; conditions: dose 2,8 mg/I, sprayed bean plants, checks after 1, 24, 48 and 72 h of contact
Experimental: 5°): Activité sur Tétranychus urticae. (composé de l'exemple 1)
On utilise des plants de haricot comportant deux feuilles cotylédonaires. Ces plants sont traités au pistolet Fisher avec une solution acétonique du produit. Après séchage 25 femelles de l'acarien Tétranychus urticae sont disposées par feuilles soit 50 individus par dose expérimentée par plant. Les contrôles d'efficacité sont effectués après 1, 24, 48 et 72 heures de contact.

Row | SMILES | KT 50 en mn (mouche domestique; Concentration 1 g/l) | activité (conclusion) (mouche domestique) | activité (conclusion) (mouches domestiques) | DL 50 (ng par individu) (mouches domestiques) | also measured
1 | CC1(C)[C@H](C(=O)O[C@H](C#N)c2cccc(Oc3ccccc3)c2)[C@@H]1/C=C\C(=O)OCCF [Exemple 35, (1R cis) 2,2-diméthyl-3-/(Z)-3-oxo 3-(2-fluoroéthoxy) 1-propényl/ cyclopropane carboxylatede (S) a-cyano 3-phénoxy benzyle] | 2,894 mn | bonne activité | – | – | activité (conclusion) [1]: bonne activité; DL 50 (ng par individu) [1]: 0,544 ng par individu
2 | CC1(C)[C@H](C(=O)OC(C#N)c2cccc(Oc3ccccc3)n2)[C@@H]1/C=C\C(=O)OCC(F)(F)F (stereo partly drawn) [Exemple 30, (1R cis) 2,2-diméthyl-3-/(Z)-3-oxo 3-(2,2,2-trifluoro éthoxy) 1-propényl/ cyclopropane carboxylatede (RS) a-cyano 6-phénoxy 2-pyridyl méthyle] | 3,498 mn | bonne activité | – | – | –
3 | C=CCC1=C(C)[C@@H](OC(=O)[C@@H]2[C@H](/C=C\C(=O)OCC(F)(F)F)C2(C)C)CC1=O [Exemple 2, (1R cis) 2,2-diméthyl-3-/(Z)-3-oxo-3-(2,2,2-trifluoroéthoxy) 1-propényll cyclopropane carboxylatede (1S) 2-diméthyl-4-oxo-3-(2-propényl) 2-cyclopenten-1-yle] | – | bonne activité | – | – | KT 50 en mn (mouche domestique; Concentration 0,25 g/l): 3,608 mn
4 | C#CCN1CC(=O)N(COC(=O)[C@@H]2[C@H](/C=C\C(=O)OCC(F)(F)F)C2(C)C)C1=O [Exemple 26, (1R cis) 2,2-diméthyl-3-/(Z)-3-oxo 3-(2,2,2-trifluoro éthoxy) 1-propényl/ cyclopropane carboxylatede (3-propargyl 2,5-dioxoimidazolidinyl) méthyle] | – | bonne activité | – | – | KT 50 en mn (mouche domestique; Concentration 0,25 g/l): 1,550 mn
5 | C#C[C@@H](OC(=O)[C@@H]1[C@H](/C=C\C(=O)OCC(F)(F)F)C1(C)C)c1cccc(Oc2ccccc2)c1 [Exemple 29, (1R cis) 2,2-diméthyl-3-/(Z)-3-oxo 3-(2,2,2-trifluoro éthoxy) 1-propényl/ cyclopropane carboxylatede (R) a-éthynyl 3-phénoxy benzyle] | – | – | activité remarquable | 0,825 ng par individu | –
6 | CC1(C)[C@H](C(=O)O[C@H](C#N)c2cccc(Oc3ccccc3)c2)[C@@H]1/C=C\C(=O)OCC(F)(F)F [Exemple 1, (1 R cis) 2,2-diméthyl 3/(Z) 3-(2,2,2-trifluoroéthoxy) 3-oxo 1-propényl/ cyclopropane carboxylatede (S) a-cyano 3-phénoxy benzyle] | 3,534 mn | bonne activité | activité remarquable | 1,115 ng par individu | activité (conclusion) ([2]; conclusion in words on the tarsal contact test): très bonne activité; concentration létale 50 (CL 50) ([2]; male cockroaches, 1 h contact with dried deposit in Petri dish, mortality checked at 24 h, 48 h, 3 and 5 days): 0,216 mg/m2; activité (essai adulticide) (Tétranychus urticae): très bonne activité; activité (conclusion) [1]: bonne activité; DL 50 (ng par individu) [1]: 4,699 ng par individu
7 | CC1(C)[C@H](C(=O)O[C@H](C#N)c2cccc(Oc3ccccc3)c2)[C@@H]1/C=C\C(=O)OC(C(F)(F)F)C(F)(F)F [Exemple 23, (1R cis) 2,2-diméthyl-3-/(Z)-3-oxo 3-(2-(1,1,1,3,3,3-hexafluoro)propoxy) 1-propényl/ cyclopropane carboxylatede (S) a-cyano 3-phénoxy benzyle] | – | – | activité remarquable | 0,962 ng par individu | –

From patent EP0048186B1, “Cyclopropane-carboxylic-acid derivatives, their preparation, their use in combating vegetal parasites, animals and locations, their compositions, and intermediates” (ROUSSEL-UCLAF, priority 1980, dated 1982)
